This note sets out measurements from paper PMC12652222 (International Journal of Molecular Sciences, 2025).

For orientation: inhibition means the share of the control response that was lost under treatment.

Assay [1] is described as follows: Hydroxyl (OH) radical scavenging. Type of assay: biochemical. Particulars: mean ± SE, n = 3; for OH (%): inhibition % at 20 µg/mL. The method, then:
(§1) The antioxidant activity was assessed using the iron reducing power (IRP) and the total antioxidant capacity (TAC). Ascorbic acid served as a standard to calculate the inhibition percentages (%) and the median inhibitory concentration (IC50) of each tested compound against the following radicals: nitric oxide (NO), hydroxyl (OH), hydrogen peroxide (H2O2), ABTS [79], and DPPH [80].

The nature of assay [2]: Hydrogen peroxide (H2O2) scavenging. Type of assay: biochemical. Particulars: mean ± SE, n = 3; for H2O2 (%): inhibition % at 20 µg/mL. The method, then:
as §1

The test system of the next assay is protein denaturation. The experiment in a line: Protein denaturation inhibition (anti-arthritic). In kind it is biochemical. On the set-up: concentration or dose not given beside the values. Particulars: mean ± SE, n = 3. The method, then: (§2) Anti-arthritic activity was evaluated using diclofenac sodium as the reference drug. The inhibition percentage and IC50 were determined for protein denaturation and the proteinase enzyme.

The target of another assay is proteinase enzyme. Briefly: Proteinase inhibition (anti-arthritic). In kind it is biochemical. On the set-up: Proteinase Inhibition (%): concentration or dose not given beside the values. Particulars: mean ± SE, n = 3. Here is the method: as §2
Assay [3] has as its target acetylcholinesterase (AChE) (Homo sapiens, UniProt P22303). The experiment in a line: biochemical. Particulars: mean ± SE, n = 3; for IC50: read-out: AChE IC50 (µg/mL) (converted). Here is the method:
The inhibition percentage and IC50 of the acetylcholinesterase (AChE) enzyme were measured using the Ellman method.

The nature of assay [4]: Iron-reducing power (IRP). Type of assay: biochemical. Particulars: mean ± SE, n = 3. Here is the method: as §1
A further assay concerns the target T1, α-amylase (Homo sapiens, UniProt P04746).
T1 sequence (P04746 16-511): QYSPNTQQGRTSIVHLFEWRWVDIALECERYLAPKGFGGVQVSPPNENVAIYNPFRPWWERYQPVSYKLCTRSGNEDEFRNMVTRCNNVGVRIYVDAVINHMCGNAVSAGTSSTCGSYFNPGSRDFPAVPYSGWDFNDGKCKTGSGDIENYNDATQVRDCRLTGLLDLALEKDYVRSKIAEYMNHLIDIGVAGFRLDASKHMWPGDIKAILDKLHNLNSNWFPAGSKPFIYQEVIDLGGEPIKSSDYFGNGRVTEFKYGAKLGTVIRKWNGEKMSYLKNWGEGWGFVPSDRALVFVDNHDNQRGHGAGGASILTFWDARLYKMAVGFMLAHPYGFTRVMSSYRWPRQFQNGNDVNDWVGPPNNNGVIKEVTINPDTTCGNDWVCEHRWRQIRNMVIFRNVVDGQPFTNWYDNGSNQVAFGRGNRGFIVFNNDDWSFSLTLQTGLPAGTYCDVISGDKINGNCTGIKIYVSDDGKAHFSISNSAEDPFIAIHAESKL
The experiment in a line: α-Amylase inhibition. Type of assay: biochemical. Particulars: read-out: α-Amylase Inhibition (%). Here is the method: (§3) The IC50 and inhibition percentages (Inhib. %) of the enzymes α-amylase and α-glucosidase were calculated.

A short description of assay [5]: Total antioxidant capacity (TAC). Type of assay: biochemical. Particulars: mean ± SE, n = 3. Here is the method:
as §1

Assay [6] in a line: Nitric oxide (NO) radical scavenging. Type of assay: biochemical. Particulars: mean ± SE, n = 3; for NO (%): inhibition % at 20 µg/mL. Here is the method: as §1
Another assay deals with α-glucosidase. The experiment in a line: α-Glucosidase inhibition. Type of assay: biochemical. Here is the method:
as §3

A short description of another assay: ABTS radical scavenging. Particulars: mean ± SE, n = 3; for ABTS (%): inhibition % at 20 µg/mL. Type of assay: biochemical. The method, then:
as §1

Another assay is described as follows: DPPH radical scavenging. In kind it is biochemical. Particulars: mean ± SE, n = 3; for DPPH (%): inhibition % at 20 µg/mL. Here is the method: as §1

Sequence of acetylcholinesterase (AChE) (P22303 32-614, species assumed): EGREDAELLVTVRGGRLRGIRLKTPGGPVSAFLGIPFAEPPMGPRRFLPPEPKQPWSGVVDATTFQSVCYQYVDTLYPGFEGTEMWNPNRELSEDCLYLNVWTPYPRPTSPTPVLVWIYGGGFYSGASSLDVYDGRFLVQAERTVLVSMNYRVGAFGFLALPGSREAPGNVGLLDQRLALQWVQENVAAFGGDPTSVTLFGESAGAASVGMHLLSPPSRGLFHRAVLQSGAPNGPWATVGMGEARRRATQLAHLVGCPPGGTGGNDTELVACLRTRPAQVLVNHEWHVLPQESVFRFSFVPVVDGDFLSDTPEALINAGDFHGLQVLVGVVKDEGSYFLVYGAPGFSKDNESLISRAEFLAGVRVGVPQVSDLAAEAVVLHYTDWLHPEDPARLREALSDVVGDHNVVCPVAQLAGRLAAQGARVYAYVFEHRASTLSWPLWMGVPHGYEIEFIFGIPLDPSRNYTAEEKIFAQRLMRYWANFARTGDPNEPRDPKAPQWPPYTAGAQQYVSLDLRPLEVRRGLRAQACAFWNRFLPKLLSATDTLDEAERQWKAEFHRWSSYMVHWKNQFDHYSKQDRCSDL

Consider `O=c1/c(=C\[C@H](O)[C@@H](O)[C@@H](O)[C@H](O)CO)sc2nc3sc4c(c3c(=O)n12)CCCC4` [8c, (E)-2-((2S,3R,4S,5R)-2,3,4,5,6-pentahydroxyhexylidene)-6,7,8,9-tetrahydro-5H-benzo [4,5]-thieno [2,3-d]thiazolo [3,2-a]-pyrimidine-3,5(2H)-dione], for which, in assay [1], the “OH (%)” value came to 5.87 ± 0.17% and the “OH radical scavenging IC50” value was found to be 80.74 ± 2.84 µg/mL. Also, in assay [2], the “H2O2 (%)” value is 6.58 ± 0.20% and the “H2O2 scavenging IC50” value is 89.75 ± 2.32 µg/mL. For the same molecule, in the assay with protein denaturation, the “Protein Denaturation Inhibition (%)” value is listed as 10.35 ± 0.17%. For the same molecule, on proteinase enzyme, the “Proteinase IC50” value is given as 75.16 ± 2.30 µg/mL and the “Proteinase Inhibition (%)” value is 6.18 ± 0.17%. Also, in assay [3], the inhibition at 20 µg/mL is 5.93 ± 0.19% and the IC50 is 110 µM. Moreover, the “IRP” value in [4] is on record as 8.75 ± 0.20 µg/mL. Further, the inhibition at 20 µg/mL on α-amylase is 11.9 ± 0.19%. For the same molecule, in assay [5], the “TAC (mg Gallic Acid/g)” value is listed as 15.90 ± 0.20 mg Gallic Acid/g. In addition, in [6], the “NO (%)” value is listed as 6.75 ± 0.20% and the “NO radical scavenging IC50” value is 60.02 ± 1.12 µg/mL. At α-glucosidase, the “α-Glucosidase IC50” value was 41.00 ± 1.33 µg/mL. Further, in “ABTS radical scavenging”, the “ABTS (%)” value is recorded as 15.65 ± 0.20% and the “ABTS radical scavenging IC50” value is given as 20.68 ± 0.24 µg/mL. In “DPPH radical scavenging”, the “DPPH (%)” value was 12.50 ± 0.20% and the “DPPH radical scavenging IC50” value is reported as 31.07 ± 0.34 µg/mL.

For the molecule `O=c1/c(=C\[C@H](O)[C@@H](O)[C@@H](O)[C@H](O)CO)sc2nc3sc4c(c3c(=O)n12)CCC4` [7c, (E)-2-((2S,3R,4S,5R)-2,3,4,5,6-pentahydroxyhexylidene)-7,8-dihydro-5H,6H-cyclopenta [4,5]thieno [2,3-d]thiazolo [3,2-a]-pyrimidine-3,5(2H)-dione], in [1], the “OH (%)” value is 9.78 ± 0.22% and the “OH radical scavenging IC50” value is reported as 48.42 ± 1.40 µg/mL. In [2], the “H2O2 (%)” value is listed as 10.96 ± 0.25% and the “H2O2 scavenging IC50” value was 53.83 ± 1.05 µg/mL. Also, the “Protein Denaturation Inhibition (%)” value in the assay on protein denaturation came to 14.08 ± 0.21%. At proteinase enzyme, the “Proteinase IC50” value is 46.88 ± 1.21 µg/mL and the “Proteinase Inhibition (%)” value amounted to 9.91 ± 0.21%. Moreover, in [3], the inhibition at 20 µg/mL was determined as 5.87 ± 0.19% and the IC50 is 115 µM. Besides, the “IRP” value in assay [4] was 13.25 ± 0.26 µg/mL. Besides, the inhibition at 20 µg/mL at α-amylase is 16.2 ± 0.24%. In addition, the “TAC (mg Gallic Acid/g)” value in [5] worked out at 20.40 ± 0.26 mg Gallic Acid/g. Further, in assay [6], the “NO (%)” value worked out at 11.25 ± 0.26% and the “NO radical scavenging IC50” value turned out to be 36.00 ± 0.45 µg/mL. The “α-Glucosidase IC50” value on α-glucosidase stood at 22.37 ± 0.53 µg/mL. In the assay “ABTS radical scavenging”, the “ABTS (%)” value is 20.15 ± 0.26% and the “ABTS radical scavenging IC50” value came to 16.06 ± 0.19 µg/mL. Besides, in “DPPH radical scavenging”, the “DPPH (%)” value was determined as 17.00 ± 0.26% and the “DPPH radical scavenging IC50” value is 22.84 ± 0.23 µg/mL.

Turning to `O=c1/c(=C\[C@H](O)[C@@H](O)[C@H](O)CO)sc2nc3sc4c(c3c(=O)n12)CCC4` [7d, (E)-2-((2S,3R,4R)-2,3,4,5-tetrahydroxypentylidene)-7,8-dihydro-5H,6H-cyclopenta [4,5]thieno [2,3-d]thiazolo [3,2-a]-pyrimidine-3,5(2H)-dione], in [1], the “OH (%)” value is listed as 9.51 ± 0.20% and the “OH radical scavenging IC50” value was found to be 49.77 ± 0.65 µg/mL. Further, in [2], the “H2O2 (%)” value is reported as 10.65 ± 0.22% and the “H2O2 scavenging IC50” value stood at 55.36 ± 1.03 µg/mL. Also, in the assay on protein denaturation, the “Protein Denaturation Inhibition (%)” value was 13.82 ± 0.19%. On proteinase enzyme, the “Proteinase IC50” value came to 48.10 ± 0.46 µg/mL and the “Proteinase Inhibition (%)” value was found to be 9.65 ± 0.19%. For the same molecule, in assay [3], the inhibition at 20 µg/mL was 4.4 ± 0.14% and the IC50 was 165 µM. For the same molecule, the “IRP” value in assay [4] stood at 12.94 ± 0.23 µg/mL. The inhibition at 20 µg/mL on α-amylase came out at 15.9 ± 0.22%. Further, the “TAC (mg Gallic Acid/g)” value in assay [5] is 20.09 ± 0.23 mg Gallic Acid/g. In addition, in assay [6], the “NO (%)” value was determined as 10.94 ± 0.23% and the “NO radical scavenging IC50” value is given as 37.06 ± 1.13 µg/mL. Besides, the “α-Glucosidase IC50” value at α-glucosidase came out at 23.09 ± 0.41 µg/mL. For the same molecule, in the assay “ABTS radical scavenging”, the “ABTS (%)” value was found to be 19.84 ± 0.23% and the “ABTS radical scavenging IC50” value is given as 16.31 ± 0.16 µg/mL. Also, in “DPPH radical scavenging”, the “DPPH (%)” value is given as 16.69 ± 0.23% and the “DPPH radical scavenging IC50” value was found to be 23.28 ± 0.49 µg/mL.

Regarding `O=c1/c(=C\[C@@H](O)[C@@H](O)[C@H](O)[C@H](O)CO)sc2nc3sc4c(c3c(=O)n12)CCC4` [7b, (E)-2-((2R,3R,4R,5R)-2,3,4,5,6-pentahydroxyhexylidene)-7,8-dihydro-5H,6H-cyclopenta [4,5]thieno [2,3-d]thiazolo [3,2-a]pyrimidine-3,5(2H)-dione], in [1], the “OH (%)” value is 10.82 ± 0.21% and the “OH radical scavenging IC50” value came to 43.75 ± 0.52 µg/mL. In addition, in assay [2], the “H2O2 (%)” value is 12.12 ± 0.24% and the “H2O2 scavenging IC50” value turned out to be 48.67 ± 0.85 µg/mL. The “Protein Denaturation Inhibition (%)” value in the assay with protein denaturation is on record as 15.06 ± 0.20%. Further, on proteinase enzyme, the “Proteinase IC50” value turned out to be 42.61 ± 0.37 µg/mL and the “Proteinase Inhibition (%)” value is given as 10.89 ± 0.20%. Further, in [3], the inhibition at 20 µg/mL amounted to 5.14 ± 0.16% and the IC50 is 131 µM. Further, the “IRP” value in assay [4] was found to be 14.44 ± 0.25 µg/mL. The inhibition at 20 µg/mL on α-amylase turned out to be 17.3 ± 0.24%. The “TAC (mg Gallic Acid/g)” value in assay [5] stood at 21.59 ± 0.25 mg Gallic Acid/g. Further, in assay [6], the “NO (%)” value is 12.44 ± 0.25% and the “NO radical scavenging IC50” value stood at 32.58 ± 0.96 µg/mL. Moreover, the “α-Glucosidase IC50” value on α-glucosidase worked out at 19.96 ± 0.34 µg/mL. For the same molecule, in the assay “ABTS radical scavenging”, the “ABTS (%)” value was 21.34 ± 0.25% and the “ABTS radical scavenging IC50” value is recorded as 15.17 ± 0.15 µg/mL. Moreover, in the assay “DPPH radical scavenging”, the “DPPH (%)” value came to 18.19 ± 0.25% and the “DPPH radical scavenging IC50” value is reported as 21.36 ± 0.44 µg/mL.

On to `O=c1/c(=C\[C@H](O)[C@@H](O)[C@H](O)[C@H](O)CO)sc2nc3sc4c(c3c(=O)n12)CCCC4` [8a, (E)-2-((2S,3R,4R,5R)-2,3,4,5,6-pentahydroxyhexylidene)-6,7,8,9-tetrahydro-5H-benzo [4,5]thieno [2,3-d]thiazolo [3,2-a]-pyrimidine-3,5(2H)-dione], for which, in assay [1], the “OH (%)” value is reported as 4.17 ± 0.15% and the “OH radical scavenging IC50” value is 113.71 ± 4.73 µg/mL. In addition, in [2], the “H2O2 (%)” value was 4.67 ± 0.17% and the “H2O2 scavenging IC50” value is 126.37 ± 4.09 µg/mL. Further, in the assay on protein denaturation, the “Protein Denaturation Inhibition (%)” value is given as 8.74 ± 0.15%. At proteinase enzyme, the “Proteinase IC50” value was determined as 101.84 ± 3.59 µg/mL and the “Proteinase Inhibition (%)” value is on record as 4.57 ± 0.15%. In assay [3], the inhibition at 20 µg/mL was 5.81 ± 0.18% and the IC50 is 112 µM. The “IRP” value in assay [4] worked out at 6.80 ± 0.18 µg/mL. On α-amylase, the inhibition at 20 µg/mL is 10.1 ± 0.17%. The “TAC (mg Gallic Acid/g)” value in assay [5] was 13.95 ± 0.18 mg Gallic Acid/g. In addition, in assay [6], the “NO (%)” value is reported as 4.80 ± 0.18% and the “NO radical scavenging IC50” value was determined as 84.51 ± 2.12 µg/mL. Besides, the “α-Glucosidase IC50” value on α-glucosidase is 64.26 ± 2.84 µg/mL. Further, in the assay “ABTS radical scavenging”, the “ABTS (%)” value was determined as 13.70 ± 0.18% and the “ABTS radical scavenging IC50” value is reported as 23.63 ± 0.28 µg/mL. In “DPPH radical scavenging”, the “DPPH (%)” value was found to be 10.55 ± 0.18% and the “DPPH radical scavenging IC50” value stood at 36.82 ± 0.42 µg/mL.
